Experimental data reported in US8431514B2, “4-cyano-3-benzoylamino-N-phenyl-benzamides for use in pest control” (Syngenta Crop Protection LLC, priority 2009, dated 2013).

Legend:
Format in all cases: in vivo
[1] = test system: Plutella xylostella; experiment: Plutella xylostella (diamond back moth) artificial diet test; conditions: 144 h, application rate 200 ppm (concentration in well 18 ppm), L2 larvae, larval mortality and growth regulation after 6 days
Method: (§1) These Examples illustrate the insecticidal and acaricidal properties of the compounds of formula (I). The tests were performed as follows:
(§2) Cotton leaf discs were placed on agar in a 24-well microtiter plate and sprayed with test solutions at an application rate of 200 ppm. After drying, the leaf discs were infested with 5 L1 larvae. The samples were checked for mortality, feeding behavior, and growth regulation 3 days after treatment (DAT). The following compound gave at least 80% control of Spodoptera littoralis: A1, A2, A3, A4, A5, A6, A7, A8, A9, A10, A11, A12, A14, A15, A16, A17, A18, A19, A20. Heliothis Virescens (Tobacco Budworm): Eggs (0-24 h old) were placed in 24-well microtiter plate on artificial diet and treated with test solutions at an application rate of 200 ppm (concentration in well 18 ppm) by pipetting. After an incubation period of 4 days, samples were checked for egg mortality, larval mortality, and growth regulation. The following compound gave at least 80% control of Heliothis virescens: A1, A2, A3, A4, A5, A6, A7, A8, A9, A10, A11, A12, A14, A15, A16, A17, A18, A19, A20. Plutella Xylostella (Diamond Back Moth): 24-well microtiter plate (MTP) with artificial diet was treated with test solutions at an application rate of 200 ppm (concentration in well 18 ppm) by pipetting. After drying, the MTP's were infested with L2 larvae (7-12 per well). After an incubation period of 6 days, samples were checked for larval mortality and growth regulation. The following compound gave at least 80% control of Plutella xylostella: A1, A2, A3, A4, A5, A6, A7, A8, A9, A10, A11, A12, A13, A14, A15, A16, A17, A18, A19, A20. Diabrotica Balteata (Corn Root Worm): A 24-well microtiter plate (MTP) with artificial diet was treated with test solutions at an application rate of 200 ppm (concentration in well 18 ppm) by pipetting. After drying, the MTP's were infested with L2 larvae (6-10 per well). After an incubation period of 5 days, samples were checked for larval mortality and growth regulation. The following compound gave at least 80% control of Diabrotica balteata: A1, A2, A3, A4, A5, A6, A7, A8, A9, A10, A11, A12, A13, A14, A16, A17, A18, A19, A20. Thrips Tabaci (Onion Thrips): Sunflower leaf discs were placed on agar in a 24-well microtiter plate and sprayed with test solutions at an application rate of 200 ppm. After drying, the leaf discs were infested with an […] population of mixed ages. After an incubation period of 7 days, samples were checked for mortality. The following compounds gave at least 80% control of Thrips tabaci: A1, A2, A3, A4, A5, A6, A7, A8, A9, A10, A14, A16, A17, A18, A19, A20. Tetranychus Urticae (Two-Spotted Spider Mite): Bean leaf discs on agar in 24-well microtiter plates were sprayed with test solutions at an application rate of 200 ppm. After drying, the leaf discs are infested with mite populations of mixed ages. 8 days later, discs are checked for egg mortality, larval mortality, and adult mortality. The following compounds gave at least 80% control of Tetranychus urticae: A1, A2, A3, A4, A5, A6, A7, A8, A9, A10, A11, A12, A13, A14, A15, A16, A17, A19, A20.

[2] = test system: Diabrotica balteata; experiment: Diabrotica balteata (corn root worm) artificial diet test; conditions: 120 h, application rate 200 ppm (concentration in well 18 ppm), L2 larvae, larval mortality and growth regulation after 5 days
Method: as §1, §2

[3] = test system: Spodoptera littoralis; experiment: Spodoptera littoralis (Egyptian cotton leafworm) leaf disc spray test; conditions: foliar, 72 h, application rate 200 ppm, cotton leaf discs, 5 L1 larvae, mortality, feeding behavior and growth regulation 3 days after treatment
Method: as §1, §2

[4] = test system: Heliothis virescens; experiment: Heliothis virescens (tobacco budworm) egg test on artificial diet; conditions: 96 h, application rate 200 ppm (concentration in well 18 ppm), eggs 0-24 h old on artificial diet, egg mortality, larval mortality and growth regulation after 4 days
Method: as §1, §2

[5] = test system: Tetranychus urticae; experiment: Tetranychus urticae (two-spotted spider mite) bean leaf disc spray test; conditions: foliar, 192 h, application rate 200 ppm, bean leaf discs, mite populations of mixed ages, egg, larval and adult mortality 8 days later, read-out: control of Tetranychus urticae
Method: as §1, §2

[6] = test system: Thrips tabaci; experiment: Thrips tabaci (onion thrips) sunflower leaf disc spray test; conditions: foliar, 168 h, application rate 200 ppm, sunflower leaf discs, population of mixed ages, mortality after 7 days
Method: as §1, §2

Measured: pest or weed control at 200 ppm

CCc1cc(C(F)(C(F)(F)F)C(F)(F)C(F)(F)F)cc(C)c1NC(=O)c1ccc(C#N)c(NC(=O)c2ccc(C#N)cc2C)c1 (stereo not shown) [A1, 4-cyano-3-(4′-cyano-2′-methylbenzoylamino)-N-[2-ethyl-6-methyl-4-(1,2,2,3,3,3-hexafluoro-1-trifluoromethylpropyl)phenyl]benzamide]
≥ 80%: all assays above

Cc1cc(C#N)ccc1C(=O)Nc1cc(C(=O)Nc2c(Cl)cc(C(F)(C(F)(F)F)C(F)(F)C(F)(F)F)cc2Br)ccc1C#N (stereo not shown) [A2, N-[2-bromo-6-chloro-4-(1,2,2,3,3,3-hexafluoro-1-trifluoromethylpropyl)-phenyl]-4-cyano-3-(4′-cyano-2′-methylbenzoylamino)benzamide]
≥ 80%: all assays above

Cc1cc(C#N)ccc1C(=O)Nc1cc(C(=O)Nc2c(Br)cc(C(F)(C(F)(F)F)C(F)(F)F)cc2Br)ccc1C#N [A3, 4-cyano-3-(4′-cyano-2′-methylbenzoylamino)-N-[2,6-dibromo-4-(1,2,2,2-tetrafluoro-1-trifluoromethylethyl)phenyl]benzamide]
≥ 80%: all assays above

Cc1cc(C#N)ccc1C(=O)Nc1cc(C(=O)Nc2c(Br)cc(C(F)(C(F)(F)F)C(F)(F)C(F)(F)F)cc2Br)ccc1C#N (stereo not shown) [A4, 4-cyano-3-(4′-cyano-2′-methylbenzoylamino)-N-[2,6-dibromo-4-(1,2,2,3,3,3-hexafluoro-1-trifluoromethylpropyl)phenyl]benzamide]
≥ 80%: all assays above

CCc1cc(C(F)(C(F)(F)F)C(F)(F)C(F)(F)F)cc(Br)c1NC(=O)c1ccc(C#N)c(NC(=O)c2ccc(C#N)cc2C)c1 (stereo not shown) [A5, N-[2-bromo-6-ethyl-4-(1,2,2,3,3,3-hexafluoro-1-trifluoromethylpropyl)-phenyl]-4-cyano-3-(4′-cyano-2′-methylbenzoylamino)benzamide]
≥ 80%: all assays above

Cc1cc(C#N)ccc1C(=O)Nc1c(C#N)ccc(C(=O)Nc2c(Cl)cc(C(F)(C(F)(F)F)C(F)(F)C(F)(F)F)cc2Br)c1F (stereo not shown) [A6, N-[2-bromo-6-chloro-4-(1,2,2,3,3,3-hexafluoro-1-trifluoromethylpropyl)-phenyl]-4-cyano-3-(4′-cyano-2′-methylbenzoylamino)-2-fluorobenzamide]
≥ 80%: all assays above

Cc1cc(C#N)ccc1C(=O)Nc1cc(C(=O)Nc2c(Cl)cc(C(F)(C(F)(F)F)C(F)(F)C(F)(F)F)cc2C#N)ccc1C#N (stereo not shown) [A7, N-[2-chloro-6-cyano-4-(1,2,2,3,3,3-hexafluoro-1-trifluoromethylpropyl)-phenyl]-4-cyano-3-(4′-cyano-2′-methylbenzoylamino)benzamide]
≥ 80%: all assays above

COc1cc(C(F)(C(F)(F)F)C(F)(F)C(F)(F)F)cc(C)c1NC(=O)c1ccc(C#N)c(NC(=O)c2ccc(C#N)cc2C)c1 (stereo not shown) [A11, 4-cyano-3-(4′-cyano-2′-methylbenzoylamino)-N-[2-methoxy-6-methyl-4-(1,2,2,3,3,3-hexafluoro-1-trifluoromethylpropyl)phenyl]benzamide]
not listed: [6]
≥ 80%: all other assays above

Cc1cc(C#N)ccc1C(=O)Nc1cc(C(=O)Nc2c(Cl)cc(C(OC(=O)c3ccccc3)(C(F)(F)F)C(F)(F)F)cc2Br)ccc1C#N [A12, benzoic acid 1-{3-bromo-5-chloro-4-[4-cyano-3-(4-cyano-2-methyl-benzoylamino)benzoylamino]phenyl}-2,2,2-trifluoro-1-trifluoromethylethyl ester]
not listed: [6]
≥ 80%: all other assays above

Cc1cc(C#N)ccc1C(=O)Nc1cc(C(=O)Nc2c(Cl)cc(C(O)(C(F)(F)F)C(F)(F)F)cc2Br)ccc1C#N [A13, N-[2-bromo-6-chloro-4-[1,1,1,3,3,3-hexafluoropropan-2-ol)phenyl]-4-cyano-3-(4′-cyano-2′-methylbenzoylamino)benzamide]
≥ 80%: [1] | [2] | [5]

CCc1cc(C(O)(C(F)(F)F)C(F)(F)C(F)(F)F)cc(C)c1NC(=O)c1ccc(C#N)c(NC(=O)c2ccc(C#N)cc2C)c1 (stereo not shown) [A15, 4-cyano-3-(4′-cyano-2′-methyl-benzoylamino)-N-[2-ethyl-6-methyl-4-(2,2,3,3,3-pentafluoro-1-hydroxy-1-trifluoromethylpropyl)phenyl]benzamide]
≥ 80%: [1] | [3] | [4] | [5]

Cc1cc(C#N)ccc1C(=O)Nc1c(C#N)ccc(C(=O)Nc2c(Cl)cc(C(F)(C(F)(F)F)C(F)(F)C(F)(F)F)cc2Cl)c1F (stereo not shown) [A18, 4-cyano-3-(4′-cyano-2′-methylbenzoylamino)-N-[2,6-dichloro-4-(1,2,2,3,3,3-hexafluoro-1-trifluoromethylpropyl)phenyl]-2-fluorobenzamide]
not listed: [5]
≥ 80%: all other assays above
